# Values quoted from earlier work, collected in PubChem BioAssay AID1259409 (Chemical Carcinogenesis Research Information System (CCRIS), 2018).
# “And” between values parts separate entries of the source, which are not always exact repeats. Equal entries are not always repeated.
# Tested on: rodent chemically induced tumor inhibition, incidence and multiplicity
# Assay: CCRIS tumor inhibitor studies
structure (smiles),measurement,setting,value
S=C=NCc1ccccc1,"tumour outcome (control, treated, inhibition, significance)","Carcinogen: 1,2-DIMETHYLHYDRAZINE, 540-73-8, Dose [Inhibitor]: 1.25 MG/G IN DIET FOR 17 WK (STUDY DURATION: 36 WK), Route [Inhibitor]: ORAL, Species: MOUSE, Strain/Sex: CF1/FEMALE, Target Tissue: Type of Lesion: LARGE INTESTINE: TUMOR, Dose [Carcinogen]: 0.7 MG IN 0.2 ML EDTA SOLUTION ADMINISTERED 8 D AFTER INHIBITOR DIET STARTED AND CONTINUED 1/WK FOR 16 WK, Promoter: NONE USED","9/9 (100%), 14/14 (100%), 0%, not significant"
same,"tumour outcome (control, treated, inhibition, significance)","Carcinogen: 2-AMINO-1-METHYL-6-PHENYLIMIDAZO[4,5-B]PYRIDINE, 105650-23-5, Dose [Inhibitor]: 0, 400 PPM IN HIGH FAT DIET FOR DURATION OF STUDY BEGINNING 1 WK PRIOR TO CARCINOGEN TREATMENT (STUDY DURATION: 31 WK), Route [Inhibitor]: ORAL, Species: RAT, Strain/Sex: SPRAGUE-DAWLEY/FEMALE, Target Tissue: Type of Lesion: MAMMARY GLAND: ADENOCARCINOMA, Dose [Carcinogen]: 100 MG/KG BW 1/2 D FOR 16 D, Promoter: NONE USED","23/31 (74%), 20/32 (63%), 15%, not significant"
same,"tumour outcome (control, treated, inhibition, significance)","Carcinogen: 4-(METHYLNITROSAMINO)-1-(3-PYRIDYL)-1-BUTANONE [64091-91-4], BENZO[A]PYRENE [50-32-8], Dose [Inhibitor]: 1 UMOL/G IN DIET FOR 10 WK BEGINNING 1 WK PRIOR TO FIRST CARCINOGEN DOSE (STUDY DURATION: 28 WK), Route [Inhibitor]: ORAL, Species: MOUSE, Strain/Sex: A/J/FEMALE, Target Tissue: Type of Lesion: LUNG: TUMOR, Dose [Carcinogen]: 3 UMOL BAP + 3 UMOL NNK IN 0.1 ML COTTONSEED OIL 1X/WK FOR 8 WK (STUDY DURATION: 28 WK), Promoter: NONE","100%, 100%, 0%, not calculated"
same,"tumour outcome (control, treated, inhibition, significance)","Carcinogen: 4-(METHYLNITROSAMINO)-1-(3-PYRIDYL)-1-BUTANONE [64091-91-4], BENZO[A]PYRENE [50-32-8], Dose [Inhibitor]: 6 UMOL IN 0.1 ML COTTONSEED OIL 1/WK FOR 8 WK 2 HR PRIOR TO EACH CARCINOGEN DOSE (STUDY DURATION: 16 WK), Route [Inhibitor]: GAVAGE, Species: MOUSE, Strain/Sex: A/J/FEMALE, Target Tissue: Type of Lesion: LUNG: TUMOR, Dose [Carcinogen]: 3 UMOL BAP + 3 UMOL NNK IN 0.1 ML COTTONSEED OIL 1X/WK FOR 8 WK (STUDY DURATION: 16 WK), Promoter: NONE","100%, 100%, 0%, not calculated"
same,"tumour outcome (control, treated, inhibition, significance)","Carcinogen: 4-(METHYLNITROSAMINO)-1-(3-PYRIDYL)-1-BUTANONE, 64091-91-4, Dose [Inhibitor]: 0, 1 UMOL/G DIET FOR 15 WK BEGINNING 1 WK POST CARCINOGEN DOSE (STUDY DURATION: 16 WK), Route [Inhibitor]: ORAL, Species: MOUSE, Strain/Sex: STRAIN-A/FEMALE, Target Tissue: Type of Lesion: LUNG: ADENOMA, Dose [Carcinogen]: 10 UMOL ONCE, Promoter: NONE USED","100%, 100%, 0%, not significant"
same,"tumour outcome (control, treated, inhibition, significance)","Carcinogen: 4-(METHYLNITROSAMINO)-1-(3-PYRIDYL)-1-BUTANONE, 64091-91-4, Dose [Inhibitor]: 0, 3 UMOL/G DIET FOR 15 WK BEGINNING 1 WK POST CARCINOGEN DOSE (STUDY DURATION: 16 WK), Route [Inhibitor]: ORAL, Species: MOUSE, Strain/Sex: STRAIN-A/FEMALE, Target Tissue: Type of Lesion: LUNG: ADENOMA, Dose [Carcinogen]: 10 UMOL ONCE, Promoter: NONE USED","100%, 100%, 0%, not significant"
same,"tumour outcome (control, treated, inhibition, significance)","Carcinogen: 4-(METHYLNITROSAMINO)-1-(3-PYRIDYL)-1-BUTANONE, 64091-91-4, Dose [Inhibitor]: 0, 5 UMOL 1/D FOR 4 D ADMINISTERED PRIOR TO CARCINOGEN DOSE (STUDY DURATION: 116 D), Route [Inhibitor]: GAVAGE, Species: MOUSE, Strain/Sex: STRAIN-A, Target Tissue: Type of Lesion: LUNG: ADENOMA, Dose [Carcinogen]: 10 UMOL IN SALINE ADMINISTERED 2 HR POST LAST AGENT DOSE, Promoter: NONE USED","100%, 100%, 0%"
same,"tumour outcome (control, treated, inhibition, significance)","Carcinogen: 4-(METHYLNITROSAMINO)-1-(3-PYRIDYL)-1-BUTANONE, 64091-91-4, Dose [Inhibitor]: 0, 5 UMOL/D FOR 4 CONSECUTIVE DAYS (STUDY DURATION: 17 WK), Route [Inhibitor]: GAVAGE, Species: MOUSE, Strain/Sex: STRAIN-A/FEMALE, Target Tissue: Type of Lesion: LUNG: ADENOMA, Dose [Carcinogen]: 10 UMOL ONCE 2 HR POST LAST AGENT DOSE, Promoter: NONE USED","100%, 100%, 0%, not significant"
same,"tumour outcome (control, treated, inhibition, significance)","Carcinogen: 4-(METHYLNITROSAMINO)-1-(3-PYRIDYL)-1-BUTANONE, 64091-91-4, Dose [Inhibitor]: 5 UMOL/D FOR 4 CONSECUTIVE DAYS (STUDY DURATION: 16 WK), Route [Inhibitor]: GAVAGE, Species: MOUSE, Strain/Sex: STRAIN-A/FEMALE, Target Tissue: Type of Lesion: LUNG: ADENOMA, Dose [Carcinogen]: 10 UMOL ONCE 2 HR POST LAST AGENT DOSE, Promoter: NONE USED","30/30 (100%), 30/30 (100%), 0%"
same,"tumour outcome (control, treated, inhibition, significance)","Carcinogen: 4-(N-NITROSOMETHYLAMINO)-1-(3-PYRIDYL)-1-BUTANONE, 64091-91-4, Dose [Inhibitor]: 0, 5 UMOL/D FOR 4 CONSECUTIVE DAYS (STUDY DURATION: 16.5 WK), Route [Inhibitor]: GAVAGE, Species: MOUSE, Strain/Sex: STRAIN-A/FEMALE, Target Tissue: Type of Lesion: LUNG: ADENOMA, Dose [Carcinogen]: 10 UMOL ONCE 2 HR POST LAST AGENT DOSE, Promoter: NONE USED","100%, 100%, 0%, not significant"
same,"tumour outcome (control, treated, inhibition, significance)","Carcinogen: 4-METHYLNITROSAMINO)-1-(3-PYRIDYL)-1-BUTANONE, 64091-91-4, Dose [Inhibitor]: 0, 5 UMOL 1/D FOR 4 D ADMINISTERED PRIOR TO CARCINOGEN TREATMENT (STUDY DURATION: 116 D), Route [Inhibitor]: GAVAGE, Species: MOUSE, Strain/Sex: STRAIN A, Target Tissue: Type of Lesion: LUNG: ADENOMA, Dose [Carcinogen]: 10 UMOL ONCE 2 HR AFTER FINAL DOSE OF INHIBITOR, Promoter: NONE USED","100%, 100%, 0%, not significant"
same,"tumour outcome (control, treated, inhibition, significance)","Carcinogen: 7,12-DIMETHYLBENZ[A]ANTHRACENE, 57-97-6, Dose [Inhibitor]: 0.017 MMOL/G IN DIET BEGINNING 1 WK AFTER CARCINOGEN ADMINISTRATION (STUDY DURATION: 28 WK), Route [Inhibitor]: ORAL, Species: RAT, Strain/Sex: SPRAGUE-DAWLEY/FEMALE, Target Tissue: Type of Lesion: MAMMARY GLAND: TUMOR, Dose [Carcinogen]: 12 MG DMBA IN 1.0 ML OLIVE OIL ONCE, Promoter: NONE USED","100%, 63%, 37%, p<0.001"
same,"tumour outcome (control, treated, inhibition, significance)","Carcinogen: 7,12-DIMETHYLBENZ[A]ANTHRACENE, 57-97-6, Dose [Inhibitor]: 5.0 MG/G DIET AT AGE 9 WK SIMULTANEOUSLY WITH CARCINOGEN, 3/WK FOR 4 WK (STUDY DURATION: 20 WK), Route [Inhibitor]: ORAL, Species: MOUSE, Strain/Sex: ICR/FEMALE, Target Tissue: Type of Lesion: LUNG: ADENOMA, Dose [Carcinogen]: 0.05 MG/G DIET AT AGE 9 WK, 3/WK FOR 4 WK, Promoter: NONE USED","95%, 93%, 2%, not significant"
same,"tumour outcome (control, treated, inhibition, significance)","Carcinogen: 7,12-DIMETHYLBENZ[A]ANTHRACENE, 57-97-6, Dose [Inhibitor]: 5 MG/G DIET AT AGE 9 WK SIMULTANEOUSLY WITH CARCINOGEN, 3/WK FOR 6 WK (STUDY DURATION: 20 WK), Route [Inhibitor]: ORAL, Species: MOUSE, Strain/Sex: ICR/FEMALE, Target Tissue: Type of Lesion: FORESTOMACH: TUMOR, Dose [Carcinogen]: 0.05 MG/G DIET AT AGE 9 WK, 3/WK FOR 4 WK, Promoter: NONE USED","87%, 5%, 94%, p<0.01"
same,"tumour outcome (control, treated, inhibition, significance)","Carcinogen: 7,12-DIMETHYLBENZ[A]ANTHRACENE, 57-97-6, Dose [Inhibitor]: 25 MG ONCE 2 HR BEFORE DMBA TREATMENT (STUDY DURATION: 18 WK), Route [Inhibitor]: INTRAGASTRIC, Species: RAT, Strain/Sex: SPRAGUE-DAWLEY/FEMALE, Target Tissue: Type of Lesion: MAMMARY GLAND: TUMOR, Dose [Carcinogen]: 12 MG IN 1 ML OLIVE OIL AT AGE 7 WK 2 HR AFTER AGENT TREATMENT, Promoter: NONE USED","77%, 54%, 30%, not significant"
same,"tumour outcome (control, treated, inhibition, significance)","Carcinogen: 7,12-DIMETHYLBENZ[A]ANTHRACENE, 57-97-6, Dose [Inhibitor]: 25 MG ONCE 4 HR BEFORE DMBA TREATMENT (STUDY DURATION: 18 WK), Route [Inhibitor]: INTRAGASTRIC, Species: RAT, Strain/Sex: SPRAGUE-DAWLEY/FEMALE, Target Tissue: Type of Lesion: MAMMARY GLAND: TUMOR, Dose [Carcinogen]: 12 MG IN 1 ML OLIVE OIL AT AGE 7 WK 4 HR AFTER AGENT TREATMENT, Promoter: NONE USED","86%, 50%, 42%, p<0.05"
same,"tumour outcome (control, treated, inhibition, significance)","Carcinogen: 7,12-DIMETHYLBENZ[A]ANTHRACENE, 57-97-6, Dose [Inhibitor]: 50 MG ONCE 2 HR BEFORE DMBA TREATMENT (STUDY DURATION: 18 WK), Route [Inhibitor]: INTRAGASTRIC, Species: RAT, Strain/Sex: SPRAGUE-DAWLEY/FEMALE, Target Tissue: Type of Lesion: MAMMARY GLAND: TUMOR, Dose [Carcinogen]: 12 MG IN 1 ML OLIVE OIL AT AGE 7 WK 2 HR AFTER AGENT TREATMENT, Promoter: NONE USED","77%, 8%, 90%, p<0.001"
same,"tumour outcome (control, treated, inhibition, significance)","Carcinogen: 7,12-DIMETHYLBENZ[A]ANTHRACENE, 57-97-6, Dose [Inhibitor]: 50 MG ONCE 4 HR AFTER DMBA TREATMENT (STUDY DURATION: 18 WK), Route [Inhibitor]: INTRAGASTRIC, Species: RAT, Strain/Sex: SPRAGUE-DAWLEY/FEMALE, Target Tissue: Type of Lesion: MAMMARY GLAND: TUMOR, Dose [Carcinogen]: 12 MG IN 1 ML OLIVE OIL AT AGE 7 WK 4 HR BEFORE AGENT TREATMENT, Promoter: NONE USED","71%, 62%, 13%, not significant"
same,"tumour outcome (control, treated, inhibition, significance)","Carcinogen: 7,12-DIMETHYLBENZ[A]ANTHRACENE, 57-97-6, Dose [Inhibitor]: 50 MG ONCE 4 HR BEFORE DMBA TREATMENT (STUDY DURATION: 18 WK), Route [Inhibitor]: INTRAGASTRIC, Species: RAT, Strain/Sex: SPRAGUE-DAWLEY/FEMALE, Target Tissue: Type of Lesion: MAMMARY GLAND: TUMOR, Dose [Carcinogen]: 12 MG IN 1 ML OLIVE OIL AT AGE 7 WK 4 HR AFTER AGENT TREATMENT, Promoter: NONE USED","100%, 21%, 79%, p<0.001 and 85%, 23%, 73%, p<0.01"
